Assay results from PubChem BioAssay AID1963866 (Molecular Pharmacology Branch, DTP, NCI, 2024).

Tested on: PDC KRAS tumor spheroids with HUVEC/MSC, viability
Assay: Anticancer human tumor 349418-098-R-PDC patient-derived lung adenocarcinoma cell line growth inhibition [KRAS2]
Conditions: for IC50: curve of first compound; for viability, T/C: stronger effect = lower value
Source text: Multicellular complex tumor spheroid response to RAS pathway inhibitors in combination with a targeted agents in patient-derived cell lines with oncogenic KRAS variants from multiple cancer types
A high-throughput screen of multi-cell type tumor spheroids was designed to identify active combinations of targeted small molecules and KRAS pathway inhibitors. Complex spheroids include a stromal component modeled by human endothelial cells (HUVEC) and fibroblasts modeled by human mesenchymal stem cells (MSCs). The concentration ranges selected for each drug and investigational agent were based upon clinically achievable concentrations if the clinical Cmax of the agent was known.
Compounds. The drugs and investigational agents: BI-3406 (NSC825286), BAY-293 (NSC824723), batoprotafib (TNO155; NSC825523), sotorasib (AMG 510; NSC818433), MRTX1257 (NSC819558), elimusertib (BAY 1895344; NSC800525), molibresib (GSK525762; NSC774829), temuterkib (LY3214996; NSC803410), venetoclax (NSC766270), alisertib (NSC759677), olaparib (NSC753686), talazoparib (NSC767125), erdafitinib (NSC781556), ipatasertib (NSC767898), cabozantinib (NSC761068), nintedanib (NSC756659), abemaciclib (NSC768073), docetaxel (NSC628503), trametinib (NSC758246), and sapanisertib (NSC764658) were obtained from the National Cancer Institute (NCI) Developmental Therapeutics Program Chemical Repository. The FDA-approved anticancer drug set is available from the Developmental Therapeutics Program. […] The stock solutions were prepared in dimethyl sulfoxide (DMSO, Sigma-Aldrich, St. Louis, MO, cat. D2650) at 800-fold the tested concentration and stored at -70 degrees C prior to their use. All drugs and investigational agents were tested over a range starting from a high concentration at or near the clinical Cmax and decreasing in half-log increments. If the clinical Cmax for an agent had not been determined, the highest concentration tested was 10 microM.
Cell Culture. All cells were maintained in an incubator at 37 degrees C and 5% CO2 with 95% humidity. The PDC lines were cultured according to standard operating procedures established by the NCI PDMR (https://pdmr.cancer.gov/sops/default.htm). Briefly, all PDCs were thawed and cultured in Matrigel-coated flasks prepared with a working solution of 1X Ham's F-12 nutrient mix, without supplementation (Invitrogen, Waltham, MA, cat. 11765054), 100 U/mL penicillin-streptomycin (Invitrogen, cat. 15140122), and 2.5% Matrigel (Corning Inc., Corning, NY, cat. 354248) for the first three passages. All PDCs were cultured in complete DMEM/F-12 media containing advanced DMEM/F-12 (Invitrogen, cat. 12634028), 4.9% defined fetal bovine serum, heat inactivated (HyClone Laboratories Inc., Logan, UT, cat. SH30070.03HI), 389 ng/mL hydrocortisone (Sigma-Aldrich, cat. H4001), 9.7 ng/mL human EGF recombinant protein (Invitrogen, cat. PHG0313), 23.4 microg/mL adenine (Sigma-Aldrich, cat. A2786), 97.3 U/mL penicillin-streptomycin (Invitrogen, cat. 15140122), 1.9 mM L-glutamine (Invitrogen, cat. 25030081), and 9.7 microM Y-27632 dihydrochloride (Tocris Bioscience, Bristol, United Kingdom, cat. 1254). The PDCs were cultured in complete DMEM/F12 media without 9.7 microM Y-27632 dihydrochloride for at least two passages prior to the screen. The established cell line HOP-62 was cultured in RPMI 1640 medium, HEPES (Invitrogen, cat. 22400105) with 10% defined fetal bovine serum (HyClone Laboratories Inc., cat. SH30070.03) and 2 mM L-glutamine (Invitrogen, cat. 25030081). The pooled donor HUVEC were cultured in endothelial cell growth medium 2 (PromoCell, Heidelberg, Germany, cat. C-22011) and the hMSC were cultured in mesenchymal stem cell growth medium 2 (PromoCell, cat. C-28009). For all experiments, HUVEC and hMSC were used at passages </=5, while the malignant cell lines were used at passages </=15. […]

[1] = second compound 0.1 µM, first compound 0.0316 µM
[2] = second compound 0.1 µM, first compound 0.1 µM
[3] = second compound 0.316 µM, first compound 0.0316 µM
[4] = second compound 0.316 µM, first compound 0.1 µM
[5] = second compound 1 µM, first compound 0.0316 µM
[6] = second compound 1 µM, first compound 0.1 µM
[7] = second compound 3.16 µM, first compound 0.0316 µM
[8] = second compound 3.16 µM, first compound 0.1 µM
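Note: spheroids exposed to compounds for seven days before readout.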

SMILES: Cn1ncnc1[C@H]1c2n[nH]c(=O)c3cc(F)cc(c23)N[C@@H]1c1ccc(F)cc1 + CNCc1ccccc1-c1csc(C(C)Nc2nc(C)nc3cc(OC)c(OC)cc23)c1
- IC50 (second compound 0.1 µM): > 0.1 µM
- IC50 (second compound 0.316 µM): > 0.1 µM
- IC50 (second compound 1 µM): > 0.1 µM
- IC50 (second compound 3.16 µM): < 0.000316 µM
- IC50 (second compound 10 µM): < 0.000316 µM
- viability, T/C (second compound 0.1 µM, first compound 0.000316 µM): 102%
- viability, T/C (second compound 0.1 µM, first compound 0.001 µM): 98%
- viability, T/C (second compound 0.1 µM, first compound 0.00316 µM): 99.7%
- viability, T/C (second compound 0.1 µM, first compound 0.01 µM): 91.3%
- viability, T/C [1]: 90.4%
- viability, T/C [2]: 86.4%
- viability, T/C (second compound 0.316 µM, first compound 0.000316 µM): 102%
- viability, T/C (second compound 0.316 µM, first compound 0.001 µM): 102%
- viability, T/C (second compound 0.316 µM, first compound 0.00316 µM): 90.6%
- viability, T/C (second compound 0.316 µM, first compound 0.01 µM): 93.9%
- viability, T/C [3]: 84.3%
- viability, T/C [4]: 76.3%
- viability, T/C (second compound 1 µM, first compound 0.000316 µM): 77.5%
- viability, T/C (second compound 1 µM, first compound 0.001 µM): 64.6%
- viability, T/C (second compound 1 µM, first compound 0.00316 µM): 73.2%
- viability, T/C (second compound 1 µM, first compound 0.01 µM): 71.4%
- viability, T/C [5]: 72.1%
- viability, T/C [6]: 64.9%
- viability, T/C (second compound 3.16 µM, first compound 0.000316 µM): 0.11%
- viability, T/C (second compound 3.16 µM, first compound 0.001 µM): 0.09%
- viability, T/C (second compound 3.16 µM, first compound 0.00316 µM): 0.09%
- viability, T/C (second compound 3.16 µM, first compound 0.01 µM): 0.08%
- viability, T/C [7]: 0.1%
- viability, T/C [8]: 0.16%
- viability, T/C (second compound 10 µM, first compound 0.000316 µM): 0.07%
- viability, T/C (second compound 10 µM, first compound 0.001 µM): 0.07%
- viability, T/C (second compound 10 µM, first compound 0.00316 µM): 0.08%
- viability, T/C (second compound 10 µM, first compound 0.01 µM): 0.07%
- viability, T/C (second compound 10 µM, first compound 0.0316 µM): 0.08%
- viability, T/C (second compound 10 µM, first compound 0.1 µM): 0.13%

SMILES: CC(C)NCC(C(=O)N1CCN(c2ncnc3c2C(C)CC3O)CC1)c1ccc(Cl)cc1 (stereo not given) + C=CC(=O)N1CCN(c2nc(OCC3CCCN3C)nc3c2CCN(c2cccc4cccc(C)c24)C3)CC1CC#N
- IC50 (second compound 0.0316 µM): 0.313 µM
- IC50 (second compound 0.1 µM): 0.254 µM
- IC50 (second compound 0.316 µM): 0.289 µM
- IC50 (second compound 1 µM): 0.224 µM
- IC50 (second compound 3.16 µM): < 0.0316 µM
- viability, T/C (second compound 0.0316 µM, first compound 0.0316 µM): 95.7%
- viability, T/C (second compound 0.0316 µM, first compound 0.1 µM): 69.4%
- viability, T/C (second compound 0.0316 µM, first compound 0.316 µM): 52.3%
- viability, T/C (second compound 0.0316 µM, first compound 1 µM): 30.7%
- viability, T/C (second compound 0.0316 µM, first compound 3.16 µM): 16.9%
- viability, T/C (second compound 0.0316 µM, first compound 10 µM): 6.91%
- viability, T/C [1]: 90.8%
- viability, T/C [2]: 76.8%
- viability, T/C (second compound 0.1 µM, first compound 0.316 µM): 42.5%
- viability, T/C (second compound 0.1 µM, first compound 1 µM): 20.9%
- viability, T/C (second compound 0.1 µM, first compound 3.16 µM): 15.2%
- viability, T/C (second compound 0.1 µM, first compound 10 µM): 7.07%
- viability, T/C [3]: 87.7%
- viability, T/C [4]: 77.9%
- viability, T/C (second compound 0.316 µM, first compound 0.316 µM): 44.7%
- viability, T/C (second compound 0.316 µM, first compound 1 µM): 24.6%
- viability, T/C (second compound 0.316 µM, first compound 3.16 µM): 15.7%
- viability, T/C (second compound 0.316 µM, first compound 10 µM): 5.1%
- viability, T/C [5]: 79.9%
- viability, T/C [6]: 66.1%
- viability, T/C (second compound 1 µM, first compound 0.316 µM): 43.7%
- viability, T/C (second compound 1 µM, first compound 1 µM): 19%
- viability, T/C (second compound 1 µM, first compound 3.16 µM): 8.97%
- viability, T/C (second compound 1 µM, first compound 10 µM): 4.67%
- viability, T/C [7]: 0.14%
- viability, T/C [8]: 0.14%
- viability, T/C (second compound 3.16 µM, first compound 0.316 µM): 0.1%
- viability, T/C (second compound 3.16 µM, first compound 1 µM): 0.23%
- viability, T/C (second compound 3.16 µM, first compound 3.16 µM): 0.21%
- viability, T/C (second compound 3.16 µM, first compound 10 µM): 0.13%
